According to US6066628A, “Non-iron metalloporphyrins and methods of use” (Emory University, priority 1998, dated 2000):
≈ marks a conversion by molar mass, not a printed value. Where “and” joins values, the source holds several entries; their conditions need not be identical. Equal entries are not always repeated. Where two headings read alike, the source gives them in different places.

Experiments:
Y. enterocolitica [1] = test: microbe, parasite or virus in culture; assay type: cell-based
S. aureus [2] = assay type: cell-based, Staphylococcus aureus; conditions: for MIC: S. aureus IR2419, dark (Table 10); for antibacterial activity: S. aureus; for Minimal inhibitory concentration (MIC): methicillin-resistant S. aureus IR219, Nutrient broth (Table 2)
M. smegmatis [3] = assay type: cell-based, Mycobacterium smegmatis; conditions: for MIC / Minimal inhibitory concentration (MIC): M. smegmatis LR222; for MIC: dark (Table 10); for antibacterial activity: M. smegmatis; for Minimal inhibitory concentration (MIC): LB + Tween 80 (Table 2)
Y. enterocolitica [4] = test: Minimal bactericidal concentration; assay type: cell-based; conditions: reduces plating efficiency more than 99.9%, minimal exposure to light; for MBC: Yersinia enterocolitica
S. aureus [5] = test: Minimal bactericidal concentration; assay type: cell-based, Staphylococcus aureus; conditions: reduces plating efficiency more than 99.9%, minimal exposure to light; for MBC: Staphylococcus aureus
Protocol: Minimal bactericidal concentrations (MBCs) were determined essentially the same way as MICs except that the amount of killing with a particular concentration of porphyrin derivative was determined by plating on solid microbiological media (LB plates or LB+Tween 80). Media were solidified by the incorporation of 1.5% agar (Difco Laboratories). Concentrations of porphyrins that produced 99.9% reduction in bacterial counts were considered bactericidal [Hindler et al. (1994) supra].
MBC were determined by plating bacterial cultures that have been incubate
in the presence of MPs at concentrations higher than MIC. MBC was defined
as a concentration of a particular MP which reduces the plating efficienc
more than 99.9%. Experiments were done with minimal exposure to light
(addition of porphyrins waa done in the presence of artifical light).

M. smegmatis [6] = test: Minimal bactericidal concentration; assay type: cell-based, Mycobacterium smegmatis; conditions: reduces plating efficiency more than 99.9%, minimal exposure to light; for MBC: Mycolicibacterium smegmatis
S. aureus [7] = test: Competition of heme/protoporphyrin IX with Ga-PPIX antibacterial activity; assay type: cell-based, Staphylococcus aureus; conditions: for antagonism of Ga-PPIX antibacterial activity: heme 10- to 100-fold molar excess, protoporphyrin IX 100-fold excess
bacteria = assay type: cell-based; conditions: for MICs: porphyrins without Ga ions, all tested bacteria
M. smegmatis [8] = test: Competition of heme/protoporphyrin IX with Ga-PPIX antibacterial activity; conditions: for antagonism of Ga-PPIX antibacterial activity: heme 10- to 100-fold molar excess, protoporphyrin IX 20- and 100-fold excess
Y. enterocolitica [9] = test: as above
[10] = Staphylococcus aureus, read-out: MIC
[11] = Mycolicibacterium smegmatis, read-out: MIC
[12] = +1 μg/ml Ga-PPIX, competitor 1 μg/ml
[13] = +1 μg/ml Ga-PPIX, competitor 10 μg/ml
[14] = +1 μg/ml Ga-PPIX, competitor 20 μg/ml
[15] = +1 μg/ml Ga-PPIX, competitor 100 μg/ml
[16] = -1 μg/ml Ga-PPIX (without Ga-PPIX), 1 μg/ml
[17] = -1 μg/ml Ga-PPIX (without Ga-PPIX), 10 μg/ml
[18] = -1 μg/ml Ga-PPIX (without Ga-PPIX), 20 μg/ml
[19] = -1 μg/ml Ga-PPIX (without Ga-PPIX), 100 μg/ml
[20] = iron restriction / 2,2'-dipyridyl

CCC1=C(C)C2=Cc3c(C)c(CCC(=O)O)c4[n]3[Ga][n]3c(c(C)c(CC)c3=CC3=NC(=C4)C(CCC(=O)O)=C3C)=CC1=N2 [GA-MP-IX]
MIC (Y. enterocolitica [1]; in µg/mL): 2.5 and 5 | MIC (S. aureus [2]): 1.6 µg/mL | MIC (M. smegmatis [3]): 0.4 µg/mL | Minimal bactericidal concentration (MBC) (Y. enterocolitica [4]): 5 | Minimal bactericidal concentration (MBC) (S. aureus [5]): > 13 | Minimal bactericidal concentration (MBC) (M. smegmatis [6]): 10

O=C(O)CCC1=C(CC(=O)O)c2cc3[nH]c(cc4nc(cc5[nH]c(cc1n2)c(CC(=O)O)c5CCC(=O)O)C(CC(=O)O)=C4CCC(=O)O)c(CC(=O)O)c3CCC(=O)O [UP-1, uroporphyrin I, reference compound]
HemR requirement of bacterial sensitivity (Y. enterocolitica [1]): did not require expression of HemR | MIC (Y. enterocolitica [1]; Yersinia enterocolitica): 10 µg/mL (≈ 12 µM) | antibacterial activity (S. aureus [2]): largely inactive | MIC (S. aureus [2]; [10]): 20 µg/mL (≈ 24.1 µM) | antibacterial activity (M. smegmatis [3]): largely inactive | MIC (M. smegmatis [3]; [11]): 20 µg/mL (≈ 24.1 µM) | Minimal bactericidal concentration (MBC) (Y. enterocolitica [4]): 5/10 | MBC (S. aureus [5]): 20 µg/mL (≈ 24.1 µM) | MBC (M. smegmatis [6]): 10 µg/mL (≈ 12 µM)

C1=CC2=NC1=Cc1ccc3[n]1[Ga][n]1c(ccc1=CC1=NC(=C3)C=C1)=C2 [GA-POR]
MIC (Y. enterocolitica [1]; in µg/mL): 20 | MIC (S. aureus [2]): 50 µg/mL | MIC (M. smegmatis [3]): 5 µg/mL

C=CC1=C(C)c2cc3[nH]c(cc4nc(cc5[nH]c(cc1n2)c(C)c5CCC(=O)O)C(CCC(=O)O)=C4C)c(C)c3C=C [PPIX, protoporphyrin IX]
MIC (S. aureus [2]; [10]): 50 µg/mL (≈ 88.9 µM) | MIC (M. smegmatis [3]; [11]): > 40 µg/mL | MBC (Y. enterocolitica [4]): > 40 µg/mL | MBC (S. aureus [5]): > 40 µg/mL | MBC (M. smegmatis [6]): > 20 µg/mL | growth (S. aureus [7]; [12]): - | growth (S. aureus [7]; [13]): - | growth (S. aureus [7]; [14]): - | growth (S. aureus [7]; [15]): + | growth (S. aureus [7]; [16]): + | growth (S. aureus [7]; [17]): + | growth (S. aureus [7]; [18]): + | growth (S. aureus [7]; [19]): + | antagonism of Ga-PPIX antibacterial activity (S. aureus [7]): some antagonizing effect | MICs (bacteria): very large MICs | growth (M. smegmatis [8]; [12]): - | growth (M. smegmatis [8]; [14]): + | growth (M. smegmatis [8]; [15]): + | growth (M. smegmatis [8]; [16]): + | growth (M. smegmatis [8]; [17]): + | growth (M. smegmatis [8]; [18]): + | growth (M. smegmatis [8]; [19]): + | antagonism of Ga-PPIX antibacterial activity (M. smegmatis [8]): antagonized | growth (Y. enterocolitica [9]; [12]): - | growth (Y. enterocolitica [9]; [13]): - | growth (Y. enterocolitica [9]; [14]): - | growth (Y. enterocolitica [9]; [15]): - | growth (Y. enterocolitica [9]; [16]): + | growth (Y. enterocolitica [9]; [17]): + | growth (Y. enterocolitica [9]; [18]): + | growth (Y. enterocolitica [9]; [19]): - | antagonism of Ga-PPIX antibacterial activity (Y. enterocolitica [9]; Y. enterocolitica fur mutant): not able to antagonize

C=Cc1c(C)c2cc3nc(c(CC(=O)O)c4[nH]c(cc5nc(cc1[nH]2)C(C)=C5CC)c(C)c4C(=O)O)[C@@H](CCC(=O)O)[C@@H]3C [Ce6, chlorin e6, reference compound]
MIC (Y. enterocolitica [1]): 20 and > 10 | MIC (S. aureus [2]): 20 µg/mL (≈ 33.5 µM) | MIC (M. smegmatis [3]): 20 µg/mL (≈ 33.5 µM) | MICs (bacteria): very large MICs

C=CC1=C(C)c2cc3[n-]c(cc4[n-]c(cc5nc(cc1n2)C(C)=C5C=C)c(C)c4CCC(=O)[O-])c(CCC(=O)[O-])c3C.[H+].[H+].[Ni+2] [Ni-PPIX]
Minimal inhibitory concentration (MIC) (Y. enterocolitica [1]): > 40 | Minimal inhibitory concentration (MIC) (S. aureus [2]): > 40 µg/mL | Minimal inhibitory concentration (MIC) (M. smegmatis [3]): 20 µg/mL

C=CC1=C(C)c2cc3[n-]c(cc4[n-]c(cc5nc(cc1n2)C(C)=C5C=C)c(C)c4CCC(=O)O)c(CCC(=O)O)c3C.[Fe+2] [Fe-PPIX]
Minimal inhibitory concentration (MIC) (Y. enterocolitica [1]): > 40 | Minimal inhibitory concentration (MIC) (S. aureus [2]): > 40 µg/mL | Minimal inhibitory concentration (MIC) (M. smegmatis [3]): > 40 µg/mL | growth (S. aureus [7]; [12]): - | growth (S. aureus [7]; [13]): - | growth (S. aureus [7]; [14]): - | growth (S. aureus [7]; [15]): - | growth (S. aureus [7]; [16]): + | growth (S. aureus [7]; [17]): + | growth (S. aureus [7]; [18]): + | growth (S. aureus [7]; [19]): + | antagonism of Ga-PPIX antibacterial activity (S. aureus [7]): did not antagonize | toxic effect on S. aureus (S. aureus [7]; heme dissolved in 20 mM NaOH): not observed | growth (M. smegmatis [8]; [12]): - | growth (M. smegmatis [8]; [13]): - | growth (M. smegmatis [8]; [14]): - | growth (M. smegmatis [8]; [15]): - | growth (M. smegmatis [8]; [16]): + | growth (M. smegmatis [8]; [17]): + | growth (M. smegmatis [8]; [18]): + | growth (M. smegmatis [8]; [19]): + | antagonism of Ga-PPIX antibacterial activity (M. smegmatis [8]): did not antagonize | growth (Y. enterocolitica [9]; [12]): - | growth (Y. enterocolitica [9]; [13]): + | growth (Y. enterocolitica [9]; [14]): + | growth (Y. enterocolitica [9]; [15]): + | growth (Y. enterocolitica [9]; [16]): + | growth (Y. enterocolitica [9]; [17]): + | growth (Y. enterocolitica [9]; [18]): + | growth (Y. enterocolitica [9]; [19]): +

CCC1=C(CC)c2cc3[nH]c(cc4nc(cc5[nH]c(cc1n2)c(CC)c5CC)C(CC)=C4CC)c(CC)c3CC.[Ga] [GA-OEP]
MIC (Y. enterocolitica [1]; in µg/mL): 20 | MIC (S. aureus [2]): 10 µg/mL | MIC (M. smegmatis [3]): 5 µg/mL | Minimal bactericidal concentration (MBC) (Y. enterocolitica [4]): > 20 | Minimal bactericidal concentration (MBC) (S. aureus [5]): 5 | Minimal bactericidal concentration (MBC) (M. smegmatis [6]): 10

O=C(N[C@H](CO)[C@H](O)c1ccc([N+](=O)[O-])cc1)C(Cl)Cl [chloramphenicol, reference compound]
effect of iron restriction medium conditions on MIC (bacteria; [20]): not affected

C=CC1=C(C)c2cc3[n-]c(cc4[n-]c(cc5nc(cc1n2)C(C)=C5C=C)c(C)c4CCC(=O)O)c(CCC(=O)O)c3C.[Cu+2] [Cu-PPIX]
Minimal inhibitory concentration (MIC) (Y. enterocolitica [1]): 20 | Minimal inhibitory concentration (MIC) (S. aureus [2]): > 40 µg/mL | Minimal inhibitory concentration (MIC) (M. smegmatis [3]): 20 µg/mL

CN[C@H](CC(C)C)C(=O)N[C@H]1C(=O)N[C@@H](CC(N)=O)C(=O)N[C@H]2C(=O)N[C@H]3C(=O)N[C@H](C(=O)N[C@H](C(=O)O)c4cc(O)cc(O)c4-c4cc3ccc4O)[C@H](O)c3ccc(c(Cl)c3)Oc3cc2cc(c3O[C@@H]2O[C@H](CO)[C@@H](O)[C@H](O)[C@H]2O[C@H]2C[C@](C)(N)[C@H](O)[C@H](C)O2)Oc2ccc(cc2Cl)[C@H]1O [vancomycin, reference compound]
effect of iron restriction medium conditions on MIC (bacteria): not affected

C=CC1=C(C)c2cc3[n-]c(cc4nc(cc5[n-]c(cc1n2)c(C)c5CCC(=O)O)C(CCC(=O)O)=C4C)c(C)c3C=C.[Pt+2] [Pt-PPIX, Platinum protoporphyrin IX]
Minimal inhibitory concentration (MIC) (Y. enterocolitica [1]): 30 | Minimal inhibitory concentration (MIC) (S. aureus [2]): 40 µg/mL | Minimal inhibitory concentration (MIC) (M. smegmatis [3]): 20 µg/mL

CCC1=C(C)c2cc3[nH]c(cc4nc(cc5[nH]c(cc1n2)c(C)c5CCC(=O)O)C(CCC(=O)O)=C4C)c(C)c3CC [MP-IX, mesoporphyrin IX, reference compound]
antibacterial activity (S. aureus [2]): largely inactive | MIC (S. aureus [2]; [10]): 20 µg/mL (≈ 35.3 µM) | antibacterial activity (M. smegmatis [3]): largely inactive | MIC (M. smegmatis [3]; [11]): > 40 µg/mL | MBC (Y. enterocolitica [4]): > 10 µg/mL | MBC (S. aureus [5]): > 13 µg/mL | MBC (M. smegmatis [6]): > 40 µg/mL

Gallium (+3) hematoporphyrin IX
antibacterial activity (bacteria): active against all microorganisms challenged

CC1(C)S[C@@H]2[C@H](NC(=O)[C@H](N)c3ccccc3)C(=O)N2[C@H]1C(=O)O [ampicillin, reference compound]
effect of iron restriction medium conditions on MIC (bacteria; [20]): not affected

C1=Cc2cc3ccc(cc4nc(cc5ccc(cc1n2)[nH]5)C=C4)[nH]3 [POR, porphine, reference compound]
MIC (Y. enterocolitica [1]; Yersinia enterocolitica, read-out: MIC): 30 µg/mL (≈ 96.7 µM) | MIC (Y. enterocolitica [1]; in µg/mL): 20 | MIC (S. aureus [2]; [10]): 50 µg/mL (≈ 161 µM) | MIC (M. smegmatis [3]; [11]): > 40 µg/mL | MICs (bacteria): very large MICs

CCC1=C(CC)c2cc3[nH]c(cc4nc(cc5[nH]c(cc1n2)c(CC)c5CC)C(CC)=C4CC)c(CC)c3CC [OEP, octaethylporphine, reference compound]
MIC (Y. enterocolitica [1]; Yersinia enterocolitica): 5 µg/mL (≈ 9.35 µM) | MIC (S. aureus [2]; [10]): 10 µg/mL (≈ 18.7 µM) | MIC (M. smegmatis [3]; [11]): 10 µg/mL (≈ 18.7 µM) | MBC (Y. enterocolitica [4]): 5 µg/mL (≈ 9.35 µM) | Minimal bactericidal concentration (MBC) (S. aureus [5]): 5/10 | MBC (M. smegmatis [6]): 10 µg/mL (≈ 18.7 µM)

C=CC1=C(C)C2=Cc3c(C=C)c(C)c4[n]3[Gd]([Cl])[n]3c(c(C)c(CCC(=O)O)c3=CC3=NC(=C4)C(C)=C3CCC(=O)O)=CC1=N2 [Gd-PPIX, Gadolinium protoporphyrin IX]
Minimal bactericidal concentration (MBC) (Y. enterocolitica [4]): 10
